Data as given in patent publication US20230118142A1, “AGENTS FOR USE IN THE TREATMENT OF TISSUE DAMAGE” (UCL BUSINESS LTD, priority 2020, published 2023).

How the values were obtained:
CRP [1] = biological target: T1, CRP (Homo sapiens, UniProt P02741); set-up: The final concentrations were 0.73 μM native pentameric CRP; from tissue; settings: rats undergoing coronary artery ligation and receiving human CRP; cited from earlier work
T1 sequence (P02741 19-224): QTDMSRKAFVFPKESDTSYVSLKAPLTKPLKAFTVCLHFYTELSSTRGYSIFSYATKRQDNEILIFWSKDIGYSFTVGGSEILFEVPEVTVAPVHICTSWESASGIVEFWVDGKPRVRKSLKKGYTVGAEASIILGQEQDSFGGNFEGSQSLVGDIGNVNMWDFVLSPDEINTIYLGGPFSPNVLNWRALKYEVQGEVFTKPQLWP

CRP [2] = biological target: T1, CRP; experiment: Roche immunoturbidimetric assay: pure CRP; assay type: binding; set-up: The final concentrations were 0.73 μM native pentameric CRP; from tissue
Procedure: (i) Human CRP at ˜90 μg/ml (3.9 μM monomer or 0.78 μM pentamer) in TC buffer was prepared from a stock solution; a 75 μl aliquot was used in the assay.
(ii) Compounds were prepared from stock solutions at up to 10 mM in TC (labelled S1). They were serially diluted with TC buffer (100 μl ligand+200 μl TC) to provide up to 9 dilutions, S2-S10. A TC buffer control (S0) was included in each assay.
(iii) A 15 μl volume of each ligand solution was incubated with 75 μl of CRP for 1 h at 37° C. The final concentrations were CRP pentamer=0.73 μM, ligands S1-S10=625-0.03 μM, corresponding to ligand:CRP pentamer ratios of 853-0.04.
(iv) CRP concentrations were measured by the Roche microparticle-enhanced immunoturbidimetric assay (10) on the COBAS MIRA autoanalyser, and results expressed as a percentage of the CRP control.
(v) Data were plotted using Sigmaplot (V14) using the 4 parameter logistic curve y=min+(max−min)/(1+(x/EC50)^−Hill slope) to calculate EC50.
(vii) All compounds were assayed in comparison with a highly purified preparation of BPC8, that was prepared by Carbogen AMCIS AG, dissolved in sterile water and diluted into TC buffer as required.
The immunoturbidimetric CRP assay on the Roche COBAS MIRA Plus autoanalyser, utilises two different sized microparticles that are covalently coupled with two different monoclonal antibodies, which recognise different CRP epitopes. The assay was developed by Roche for clinical measurement of CRP serum and plasma with high sensitivity and a very wide dynamic range. Serendipitously, one of the two antibodies binds to an epitope present on the ligand binding B-face of CRP. Thus, when the binding pocket is occupied by ligand and, especially, when the B-face is occluded by the B-face to B-face interaction of two native CRP pentamers produced by cross linking via our unique bivalent ligands, the assay fails to detect the CRP. In contrast, the CRP is all detected and assayed normally by other assays that disrupt the crosslinking and/or use antibodies which recognise different, non-occluded, epitopes. Inhibition of CRP recognition in the Roche assay is thus a convenient tool to monitor the efficacy and potency of complex formation between our unique ligands and CRP.

[3] = In vivo clearance of ligand; settings: male, C57BL/6, mouse, serum, 0.5 mg; mice, intravenous; read-out: half-life (t1/2) of ligand in mouse circulation
Procedure: (i) Ligand (0.5 mg/animal) dissolved in PBS or saline (200 μl) was injected intravenously into the tail vein of six male; 23-27 week old wild-type C57BL/6 mice. Up to two blood samples plus a terminal sample per mouse were collected at each time point up to 180 minutes.
(ii) Serum was prepared and ˜200 ng of internal standard (either ^2H4-BPC6 or BPC9) added. Serum proteins were precipitated with 4 volumes of either ice cold methanol or acetonitrile. The supernatant was dried under vacuum and re-dissolved in 0.1% v/v aqueous formic acid. (iii) Samples were chromatographed on a Phenomenex Aqua column using a gradient of 0.1% v/v formic acid-60% v/v acetonitrile in formic acid, and the eluate passed into the positive ion source of a Quattro II triple quadrupole mass spectrometer. The MRM transitions used were m/z 449.3→390.2 and 453.→394.2 (BPC6) and m/z 477.3→418.3, […] (BPC8).
(iv) Ligand concentrations were measured against an extracted standard curve and were plotted using Sigmaplot (v14) and fitted to a 2-parameter exponential decay.

CRP [4] = biological target: T1, CRP; experiment: Rat acute myocardial infarction model (coronary artery ligation) with human CRP; assay type: in vivo; set-up: The final concentrations were 0.73 μM native pentameric CRP; from tissue; settings: rats; ischaemia reperfusion and terminal coronary artery ligation; unpublished observations
Description: Human CRP and activated rat complement were deposited in and around the infarct and the exacerbation of tissue damage was absolutely complement dependent. Similar observations were made in the middle cerebral artery occlusion model of stroke in rats (3).
The design of the first small molecule inhibitor of CRP binding for use in vivo, bis(phosphocholine)hexane (BPC6), enabled conclusive confirmation of the pathogenic role of human CRP in exacerbating tissue damage after ischaemic infarction (4).

CRP [5] = biological target: T1, CRP; experiment: Size exclusion chromatography of CRP/ligand cross linking; assay type: binding; set-up: The final concentrations were 0.73 μM native pentameric CRP; from tissue
Procedure: (i) Ligands were diluted to 0.5 mM in TC buffer from up to 10 mM stocks. Serial dilutions were prepared as required. […]
(iii) The complex was chromatographed on a Superdex200 column (10/300 GL; 24 ml bed volume), connected to the ÅKTA100 Explorer HPLC system, and equilibrated and eluted in TC buffer at 0.5 ml/min. Eluates were monitored at 280 nm and fractions (0.5 ml) collected as required.
Size exclusion chromatography on a Superdex 200 column equilibrated and eluted with TC buffer pH 8.0, and calibrated with standard globular marker proteins and with human CRP, the native CRP pentamer (Mr 115 kDa) eluted at 13.9 ml (range 13.7-14.0 ml, n=10).

CRP [6] = biological target: T1, CRP; experiment: In vivo clearance of CRP/ligand complexes generated in vivo in mice; set-up: The final concentrations were 0.73 μM native pentameric CRP; from tissue
Procedure: (i) Two groups of 8 wild-type C57BL/6 mice (male; 23-27 weeks old) were used: group 1 (control) and group 2 (treated).
(ii) Both groups of animals were given 200 μl of human CRP (5 mg/ml in azide-free TC buffer) subcutaneously on day 1.
(iii) On day 2 (+18 h), control animals were given a 200 μl intravenous bolus of TC buffer. Treated animals were given a 200 μl iv bolus of ligand (prepared at 5 mg/ml in TC buffer).
(iv) One timed blood sample and a terminal blood sample were collected from each mouse into heparinised tubes and weighed. This generated data in quadruplicate at 4 time points, normally 30, 60, 120 and 360 minutes.
(v) ^125I radiolabel was measured (Perkin Elmer Wizard; protocol #1) in whole blood to quantify total CRP. In some cases, electroimmunoassay as above was also used to determine total CRP concentration.
(vi) Plasma was prepared and free CRP determined by Roche immunoassay.
Subcutaneous injection of human CRP provided circulating CRP concentrations with which to test for effects of our ligands in vivo. (Table 4).

CRP [7] = biological target: T1, CRP; experiment: Immobilised phosphocholine plate assay (125I-CRP binding); set-up: The final concentrations were 0.73 μM native pentameric CRP; from tissue; settings: read-out: IC50 for inhibition of 125I-CRP binding to immobilised phosphocholine
Procedure: (i) Phosphocholine was immobilised on Greiner NHS-activated microtitre plates by incubation with 4-aminophenyl-1-phosphocholine. Remaining active sites were blocked by incubation with 4% w/v BSA in TC buffer (TCB).
(ii) Human CRP at 1 μg/ml in TC buffer was spiked with ^125I-labelled CRP to provide 10^6 cpm/ml.
(iii) Compounds were prepared from up to 10 mM stock solutions by dilution in TC buffer to 0.5 mM (labelled S1). Serial dilutions were prepared by diluting 100 μl ligand solution with 200 μl TC buffer (S2-S10). A ligand-free control was also used (SO, TC only).
(iv) A 100 μl volume of CRP solution was incubated with 10 μl of each compound (S1-S10, SO) for 1 h at room temperature without stirring, to provide final ligand concentrations across the range 45.5 μM-6.9 nM with a ligand:CRP monomer molar ratio of 1151-0.06. In some cases, single fixed ligand concentrations were also assayed in comparison with PC.
(v) A 100 μl volume of each CRP-ligand mixture was added to the plate wells and incubated for 2 h at room temperature. Solutions were then discarded and the plates washed with TCB buffer. Bound radioactivity was measured (1 min counts) using a gamma counter (Perkin Elmer Wizard 2470).
(vi) Data were plotted with Sigmaplot v14 software using the 4-parameter logistic curve y=min+(max−min)/(1+(x/EC50)^−Hill slope) to calculate IC50.

Row | Compound | Effect on increased tissue damage caused by human CRP (CRP [1]) | IC50 (CRP [2]; pure CRP in TC buffer, read-out: IC50 (μM), SD, inhibition of Roche CRP immunoreactivity) | half-life [3] | excess of ligand over CRP pentamer causing 50% reduction of immunoreactivity (CRP [2]) | Protective effect against human CRP pathogenicity (CRP [4]) | Stable to rechromatography (CRP [5]; CRP/ligand complex re-chromatographed in absence of free ligand) | CRP elution volume from Superdex 200 after pre-incubation with ligand (CRP [5]; native CRP pentamer elutes at 13.9 ml) | Time by which Roche value was the same as in control mice (CRP [6]; i.v. bolus 1 mg 18 h after s.c. CRP) | Effect on detection of circulating CRP in the Roche assay (CRP [6]; i.v. bolus 18 h after s.c. CRP (1 mg)) | IC50 (CRP [7])
1 | C[N+](C)(C)CCOP(=O)([O-])OCCCCCCOP(=O)([O-])OCC[N+](C)(C)C [BPC6, bis(phosphocholine)hexane] | completely abrogated the increased damage | 4.7 µM | 16.1 min | – | – | – | – | – | – | –
2 | C[N+](C)(C)CCOP(=O)(O)OCCCCCCCCOP(=O)(O)OCC[N+](C)(C)C [BPC8, 1,8-bis(phosphocholine)-octane, reference compound] | – | – | 15.4 min | 2.5 fold | same protective effect | No | 12.6 mL | ≤ 3 h | immediately blocked detection of circulating CRP | 2.2 µM
